The values that follow come from US20030039957A1, “Functional protein expression for rapid cell-free phenotyping” (priority 2000, published 2003).

In assay [1] the test system is mutant DNA gyrase A protein. As to the kind of experiment: Supercoiling inhibition and DNA cleavage assays. It is filed as biochemical, Streptococcus pneumoniae. Particulars: for MIC relative to maximal serum drug concentrations reported for standard dosage regimens: enzyme inhibition or DNA cleavage assays. As to the method:
(§1) The functional activity of the purified mutant DNA gyrase A protein obtained from the fluoroquinolone resistant Streptococcus pneumoniae was compared to wild-type DNA gyrase A protein in supercoiling inhibition assays and DNA cleavage assays as described in Pan et al., and Barnard et al., supra. A concentration range of antibiotics was added to contact both the wild-type and mutant proteins. In addition, the affinities for each antibiotic and both the wild-type and mutant proteins were derived according to the method described in Roychoudhury, et al., supra.

In assay [2] the target is T1, mutant lanosterol 14 alpha-demethylase proteins (Candida albicans, UniProt P10613).
T1 construct: IC50; other: mutant proteins; other: at 100 nM; A 60 kDa protein, corresponding to the lanosterol 14 alpha-demethylase protein, was produced from this eukaryotic expression system
T1 sequence (P10613 whole entry, looked up, stated change not applied): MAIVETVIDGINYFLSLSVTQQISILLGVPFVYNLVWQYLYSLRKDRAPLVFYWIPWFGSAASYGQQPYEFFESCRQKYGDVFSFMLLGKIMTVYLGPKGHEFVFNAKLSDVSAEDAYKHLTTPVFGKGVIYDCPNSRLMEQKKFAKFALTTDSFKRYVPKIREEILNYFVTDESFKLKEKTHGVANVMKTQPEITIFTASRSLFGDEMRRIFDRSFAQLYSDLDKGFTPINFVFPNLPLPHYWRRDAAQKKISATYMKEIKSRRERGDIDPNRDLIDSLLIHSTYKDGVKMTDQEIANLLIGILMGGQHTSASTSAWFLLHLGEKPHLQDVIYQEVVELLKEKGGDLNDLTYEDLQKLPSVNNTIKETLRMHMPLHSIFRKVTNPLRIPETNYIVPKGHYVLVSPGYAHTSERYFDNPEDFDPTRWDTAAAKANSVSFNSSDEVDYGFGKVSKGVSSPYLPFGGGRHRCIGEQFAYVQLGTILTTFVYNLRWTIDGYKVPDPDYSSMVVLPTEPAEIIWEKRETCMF
In words: Prevention of CO-complex formation with reduced cytochrome P450, mutant. It is filed as binding, C. albicans. Particulars: mutant proteins. As to the method:
(§2) Microsomes were isolated from C. albicans as described in Marichal, P., et al., Microbiology (1999), 145, 2701-2713, incorporated herein by reference. Prevention of CO-complex formation in the reduced microsomal cytochrome P450 preparation provides an assay that can be used to test the affinity of the protein for an azole. The P-450 content and the effects of azoles on the interaction of CO with the reduced haem iron of P-450 were measured as described in Vanden Bossche, H., et al., Drug Dev Res, 8:287-298 (1986), incorporated herein by reference. The assay employed 0.1 nmol cytochrome P450 and 100 pM to 100 μM ranges of the anti-fungal compounds itraconazole and fluconazole.

Assay [3] addresses T2, wild-type lanosterol 14 alpha-demethylase protein (Candida albicans, UniProt P10613). Further details: A 60 kDa protein, corresponding to the lanosterol 14 alpha-demethylase protein, was produced from this eukaryotic expression system; made in house; host or cells: cell-free coupled reticulocyte lysate (TNT T7 Quick for PCR DNA, Promega). Particulars: typically reported; cited from earlier work.

The target in assay [4] is wild-type HCV NS5B RNA-dependent RNA polymerase (Hepatitis C virus genotype 2b, UniProt Q9DHD6). The format is biochemical.
Sequence of wild-type HCV NS5B RNA-dependent RNA polymerase (Q9DHD6 2443-3033 limits assumed): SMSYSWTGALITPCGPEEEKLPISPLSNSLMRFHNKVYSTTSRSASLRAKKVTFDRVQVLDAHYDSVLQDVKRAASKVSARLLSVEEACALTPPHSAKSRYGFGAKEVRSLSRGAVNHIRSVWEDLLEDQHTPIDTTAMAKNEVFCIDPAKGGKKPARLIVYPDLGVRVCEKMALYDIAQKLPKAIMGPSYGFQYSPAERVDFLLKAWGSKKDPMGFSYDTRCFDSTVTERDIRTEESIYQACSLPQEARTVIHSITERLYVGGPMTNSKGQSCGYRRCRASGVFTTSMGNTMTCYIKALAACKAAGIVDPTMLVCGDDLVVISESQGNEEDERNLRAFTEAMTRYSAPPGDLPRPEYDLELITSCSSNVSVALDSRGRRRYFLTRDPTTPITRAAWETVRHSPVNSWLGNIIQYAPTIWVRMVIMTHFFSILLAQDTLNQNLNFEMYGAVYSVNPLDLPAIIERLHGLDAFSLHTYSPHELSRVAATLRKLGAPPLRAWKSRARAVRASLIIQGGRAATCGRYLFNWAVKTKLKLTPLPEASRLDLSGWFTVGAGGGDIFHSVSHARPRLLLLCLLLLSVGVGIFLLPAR
Assay [5] deals with patient derived HCV NS5B RNA-dependent RNA polymerase. The format is biochemical, hepatitis C virus.
Assay [6] deals with wild-type HBV polymerase (HBV-WT) (Hepatitis B virus genotype A2 subtype adw2, UniProt P03159). As to the kind of experiment: DNA polymerase assay (non-radioactive, sandwich ELISA) with cell-free expressed HBV polymerase. The following applies: read-out: IC50, inhibition of DNA polymerase activity, FIG. 3, approximate. Background: An ELISA detects its analyte on a solid surface through an enzyme-linked reagent.
Sequence of wild-type HBV polymerase (HBV-WT) (P03159 whole entry): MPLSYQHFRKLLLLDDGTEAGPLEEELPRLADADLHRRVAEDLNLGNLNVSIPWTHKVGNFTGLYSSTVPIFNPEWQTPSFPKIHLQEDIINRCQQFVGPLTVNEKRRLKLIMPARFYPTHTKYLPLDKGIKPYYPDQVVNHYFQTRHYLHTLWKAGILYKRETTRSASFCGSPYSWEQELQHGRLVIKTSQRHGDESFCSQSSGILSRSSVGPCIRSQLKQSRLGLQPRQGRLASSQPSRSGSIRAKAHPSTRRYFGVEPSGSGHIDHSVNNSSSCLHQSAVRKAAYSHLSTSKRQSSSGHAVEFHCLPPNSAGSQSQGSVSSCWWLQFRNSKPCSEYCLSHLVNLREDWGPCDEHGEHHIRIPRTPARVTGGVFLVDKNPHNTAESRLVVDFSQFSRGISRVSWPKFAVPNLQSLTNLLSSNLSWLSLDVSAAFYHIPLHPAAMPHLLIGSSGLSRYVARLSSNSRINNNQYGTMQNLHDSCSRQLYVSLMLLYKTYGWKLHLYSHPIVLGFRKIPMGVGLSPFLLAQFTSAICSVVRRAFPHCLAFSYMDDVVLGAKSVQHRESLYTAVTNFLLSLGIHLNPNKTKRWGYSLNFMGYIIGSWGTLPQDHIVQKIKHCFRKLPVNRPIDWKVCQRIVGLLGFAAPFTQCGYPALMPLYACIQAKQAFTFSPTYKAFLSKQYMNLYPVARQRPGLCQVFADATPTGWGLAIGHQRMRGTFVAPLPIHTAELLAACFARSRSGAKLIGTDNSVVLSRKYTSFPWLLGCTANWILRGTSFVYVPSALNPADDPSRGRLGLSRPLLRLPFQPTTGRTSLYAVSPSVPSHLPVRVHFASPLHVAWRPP
Excerpt: A sensitive DNA polymerase assay (Roche Molecular Biochemicals, Indianapolis, Ind.) was used to determine the DNA polymerase activity of the expressed HBV polymerase proteins. […] The DNA polymerase assay as shown provides a non-radioactive assay, which measures the ability of the enzyme to digoxigenin and biotin labeled nucleotides into freshly synthesized DNA. The detection of synthesized DNA as a parameter for DNA polymerase activity follows a sandwich ELISA protocol—biotin labeled nucleic acid binds the surface of a microtiter plate coated with streptavidin. An anti-digoxigenin antibody conjugated to peroxidase is incubated with the nucleic acid. Upon addition of the peroxidase substrate, a color change occurs corresponding to the peroxidase activity, which is detected by a microplate ELISA reader. The absorbance samples is directly correlated to the level of DNA polymerase activity in the sample. […] In FIG. 1, HBV-WT refers to the wild-type HBV polymerase. […] PC and NC refer respectively to positive and negative controls. Briefly, the positive control includes Klenow enzyme in polymerase buffer. The negative control includes reticulcyte lysate without the DNA amplicon.
Inhibition of DNA polymerase activity (%) was plotted against compound concentration. […]

Assay [7] has as its system strain AD 1002 overexpressing C. albicans Cdr1p. Particulars: strain AD 1002 overexpressing Cdr1p, Nakamura 2001; cited from earlier work.
In assay [8] the test system is HIV reverse transcriptase, patient-derived protein. The format is biochemical, HIV-1.
Excerpt: The PCR-generated DNA templates were expressed into HIV reverse transcriptase and protease using a coupled reticulocyte lysate system, TNT T7 Quick for PCR DNA (Promega, Madison, Wis.). Sizes of the proteins, as well as a confirmation of their integrity, was confirmed by Western Blot.
In a further assay the test system is HIV. Particulars: cited from earlier work.
The next assay addresses T3, wild-type DNA Gyrase A (Streptococcus pneumoniae serotype 4, UniProt P0A4L9+P72524).
T3 construct: A 100 kDa protein, corresponding to the DNA gyrase A protein, was produced from this eukaryotic expression system; made in house; host or cells: cell-free coupled reticulocyte lysate (TNT T7 Quick for PCR DNA, Promega)
As to the kind of experiment: Binding assays (affinity), wild-type gyrase A. How it is done: as §1

For a further assay, the system named is mutant DNA Gyrase A. In words: Binding assays (affinity), mutant gyrase A. Further details: species or system Streptococcus pneumoniae. As to the method: as §1
Assay [9] concerns DNA gyrase versus topoisomerase IV. As to the kind of experiment: Ratio of affinity parameter, DNA gyrase to control protein topoisomerase IV. It is filed as binding, Streptococcus pneumoniae.
For assay [10], the system named is mutant lanosterol 14 alpha-demethylase proteins. In words: Prevention of CO-complex formation with reduced cytochrome P450, mutant. The format is binding, C. albicans. The following applies: mutant versus wild-type. How it is done:
as §2

For the next assay, the system named is S. cerevisiae AD1-8u(−). Particulars: Nakamura 2001; cited from earlier work.
The target in assay [11] is T2, wild-type lanosterol 14 alpha-demethylase protein. As to the kind of experiment: Prevention of CO-complex formation with reduced cytochrome P450, wild-type. The format is binding, C. albicans. Further details: A 60 kDa protein, corresponding to the lanosterol 14 alpha-demethylase protein, was produced from this eukaryotic expression system; made in house. Particulars: wild-type proteins. As to the method: as §2

Values after ≈ are worked out from the molar mass of the structure shown. Like-named read-outs stand apart in the source and are kept apart here.

T2 sequence (P10613 whole entry): as the sequence (P10613 whole entry, looked up, stated change not applied) above
T3 sequence (P0A4L9 whole entry): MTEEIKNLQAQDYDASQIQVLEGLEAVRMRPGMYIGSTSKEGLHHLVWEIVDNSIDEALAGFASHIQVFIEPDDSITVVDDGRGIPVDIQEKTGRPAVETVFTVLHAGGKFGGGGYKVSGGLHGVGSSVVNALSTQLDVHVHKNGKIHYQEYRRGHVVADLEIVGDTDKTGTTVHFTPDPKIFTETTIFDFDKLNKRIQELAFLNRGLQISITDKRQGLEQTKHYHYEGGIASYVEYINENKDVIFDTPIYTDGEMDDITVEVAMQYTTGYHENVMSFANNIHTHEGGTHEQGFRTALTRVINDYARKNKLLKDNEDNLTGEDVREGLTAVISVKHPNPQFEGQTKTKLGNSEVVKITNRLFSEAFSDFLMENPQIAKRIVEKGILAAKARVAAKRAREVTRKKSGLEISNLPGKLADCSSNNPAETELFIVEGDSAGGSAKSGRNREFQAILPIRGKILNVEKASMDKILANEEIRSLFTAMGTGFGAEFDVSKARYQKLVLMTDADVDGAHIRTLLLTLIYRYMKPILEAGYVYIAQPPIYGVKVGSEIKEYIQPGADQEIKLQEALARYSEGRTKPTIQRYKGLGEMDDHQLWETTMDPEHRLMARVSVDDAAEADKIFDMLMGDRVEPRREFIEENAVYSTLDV
T3 sequence (P72524 whole entry): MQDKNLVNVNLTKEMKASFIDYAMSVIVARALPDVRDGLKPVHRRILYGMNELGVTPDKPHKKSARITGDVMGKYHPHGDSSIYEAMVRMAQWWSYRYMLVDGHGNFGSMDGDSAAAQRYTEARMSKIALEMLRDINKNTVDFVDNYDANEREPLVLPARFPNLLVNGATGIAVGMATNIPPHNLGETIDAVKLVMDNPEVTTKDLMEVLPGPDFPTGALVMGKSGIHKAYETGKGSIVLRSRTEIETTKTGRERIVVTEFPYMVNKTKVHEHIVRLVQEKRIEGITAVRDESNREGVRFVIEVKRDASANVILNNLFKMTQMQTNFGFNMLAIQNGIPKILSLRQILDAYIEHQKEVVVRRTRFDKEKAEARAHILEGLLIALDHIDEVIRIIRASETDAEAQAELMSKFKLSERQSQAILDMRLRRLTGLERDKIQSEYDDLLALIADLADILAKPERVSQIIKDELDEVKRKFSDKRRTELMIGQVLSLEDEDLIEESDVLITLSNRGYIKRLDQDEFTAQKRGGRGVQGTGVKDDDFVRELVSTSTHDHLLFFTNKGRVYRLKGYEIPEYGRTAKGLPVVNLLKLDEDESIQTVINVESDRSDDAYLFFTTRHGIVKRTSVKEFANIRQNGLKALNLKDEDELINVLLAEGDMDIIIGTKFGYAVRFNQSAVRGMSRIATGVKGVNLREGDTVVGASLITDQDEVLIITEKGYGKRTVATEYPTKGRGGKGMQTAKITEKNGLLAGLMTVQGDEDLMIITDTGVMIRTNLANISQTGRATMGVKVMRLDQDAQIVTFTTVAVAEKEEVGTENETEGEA

In the case of `C[C@@H]1CN(c2c(F)c(N)c3c(=O)c(C(=O)O)cn(C4CC4)c3c2F)C[C@H](C)N1` [sparfloxacin], the “fold increase in inhibitory concentration of mutant versus wild-type enzyme” value in assay [1] was “about 4 fold”. With `CCC(C)n1ncn(-c2ccc(N3CCN(c4ccc(OCC5COC(Cn6cncn6)(c6ccc(Cl)cc6Cl)O5)cc4)CC3)cc2)c1=O` (centres unmarked) [itraconazole], the results for the IC50 in [2] and in [3] were 30 to 75 nM and 10 to 50 nM, respectively.

Turning to `CN1C(=O)[C@]23CC4=CC=C[C@H](O)[C@H]4N2C(=O)[C@@]1(CO)SS3` [gliotoxin], the “effect on RdRp activity” value is “inhibited HCV NS5B RdRp of both wild-type and patient derived proteins in a dose-dependent manner” in [4]; “inhibited HCV NS5B RdRp of both wild-type and patient derived proteins in a dose-dependent manner” in assay [5]. Take `Nc1ccn([C@@H]2CS[C@H](COP(=O)(O)OP(=O)(O)OP(=O)(O)O)O2)c(=O)n1` [lamivudine-TP]: the IC50 in assay [6] was ~50 nM. Regarding `CC(=O)N1CCN(c2ccc(OCC3COC(Cn4ccnc4)(c4ccc(Cl)cc4Cl)O3)cc2)CC1` (centres unmarked) [ketoconazole], the MIC(80) in [7] was 0.5 µg/mL (≈ 0.941 µM). With `NC(=O)c1ncn([C@@H]2O[C@H](COP(=O)(O)OP(=O)(O)OP(=O)(O)O)[C@@H](O)[C@H]2O)n1` [ribavirin triphosphates], the “effect on RdRp activity” value in [4] (wild-type NS5B protein) and in assay [5] was “no inhibitory effect” throughout. For the compound `Cc1cn([C@H]2C[C@H](N=[N+]=[N-])[C@@H](CO)O2)c(=O)[nH]c1=O` [AZT, zidovudine], the “difference in the IC50 value, patient sample versus wild-type” value in [8] was “five-fold”. Also, the “reduction of virus replication” value with HIV is “about 90%”.

On to `Cc1c(F)c(N2CCNC(C)C2)cc2c1c(=O)c(C(=O)O)cn2C1CC1` (centres unmarked) [grepafloxacin], for which, in assay [1], the “MIC relative to maximal serum drug concentrations reported for standard dosage regimens” value was “above the maximal serum drug concentrations”. The same measure, in the same setting: next, `CO/N=C1\CN(c2nc3c(cc2F)c(=O)c(C(=O)O)cn3C2CC2)CC1CN` (centres unmarked) [gemifloxacin]: “below the maximal serum concentrations”. As to `CN[C@@H](C)[C@@H]1CCN(c2c(F)cc3c(=O)c(C(=O)O)cn(C4CC4)c3c2OC)C1` [premafloxacin], the “fold increase in inhibitory concentration of mutant versus wild-type enzyme” value in [1] stood at 32 fold. For the compound `NC1CCN(c2c(F)cc3c(=O)c(C(=O)O)cn(C4CC4)c3c2Cl)C1` (centres unmarked) [clinafloxacin], in assay [1], the “MIC relative to maximal serum drug concentrations reported for standard dosage regimens” value is recorded as “below the maximal serum concentrations”. Further, the “affinity compared with ciprofloxacin, trovafloxacin, gatifloxacin, gemifloxacin and moxifloxacin” value on wild-type DNA Gyrase A and in the assay on mutant DNA Gyrase A was “higher affinities” each time. Also, the “ratio of the calculated affinity parameter for DNA gyrase to that for topoisomerase IV, compared with ciprofloxacin and trovafloxacin” value in assay [9] is reported as “lower”. With `OC(Cn1cncn1)(Cn1cncn1)c1ccc(F)cc1F` [fluconazole], the IC50 in assay [2] is ~4880 nM; in assay [11], 40 nM. Besides, in assay [10], the “range of IC50 values, wild-type to mutant” value is recorded as “more than 100 fold”. Also, in the assay on S. cerevisiae AD1-8u(−), the MIC(80), MIC at which 80% of cells were inhibited is 0.625 µg/mL. In addition, in [7], the MIC(80) is 30 µg/mL (≈ 98 µM).

Turning to `N[C@@H]1[C@H]2CN(c3nc4c(cc3F)c(=O)c(C(=O)O)cn4-c3ccc(F)cc3F)C[C@@H]12` [trovafloxacin], the “MIC relative to maximal serum drug concentrations reported for standard dosage regimens” value in assay [1] was “above the maximal serum drug concentrations”. As to `COc1c(N2CCNC(C)C2)c(F)cc2c(=O)c(C(=O)O)cn(C3CC3)c12` (centres unmarked) [gatifloxacin], the “MIC relative to maximal serum drug concentrations reported for standard dosage regimens” value in assay [1] is listed as “above the maximal serum drug concentrations”. Moreover, the “ratio of the calculated affinity parameter for DNA gyrase to that for topoisomerase IV, compared with ciprofloxacin and trovafloxacin” value in assay [9] is given as “lower”.

Usually IC50 stands for the concentration needed to halve the response being measured.
